IP, Drug uptake(free) and Activity data for 1 molecule are collected here from ChEMBL document CHEMBL4196115 (ACS Med Chem Lett, 2018).

Residue numbers refer to the chain shown, from its start. Calls of active or inactive are those of the source. The calls are words filed in the database; no cut-off is given here.

Assay [1] has as its target T1, Muscarinic acetylcholine receptor M1 (Homo sapiens) (UniProt P11229).
T1 sequence (whole entry): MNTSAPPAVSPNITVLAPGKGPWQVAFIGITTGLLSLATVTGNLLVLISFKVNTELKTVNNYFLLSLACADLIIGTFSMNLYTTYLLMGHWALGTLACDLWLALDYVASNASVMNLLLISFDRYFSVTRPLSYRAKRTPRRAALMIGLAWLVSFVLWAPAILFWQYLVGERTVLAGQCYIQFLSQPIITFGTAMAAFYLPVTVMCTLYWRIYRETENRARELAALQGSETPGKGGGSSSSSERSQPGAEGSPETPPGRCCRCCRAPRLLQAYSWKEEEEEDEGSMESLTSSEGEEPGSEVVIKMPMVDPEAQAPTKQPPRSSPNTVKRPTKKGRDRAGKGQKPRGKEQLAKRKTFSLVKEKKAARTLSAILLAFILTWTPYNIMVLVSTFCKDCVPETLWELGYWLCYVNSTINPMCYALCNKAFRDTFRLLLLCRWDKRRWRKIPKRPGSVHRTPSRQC
The experiment in a line: Positive allosteric modulation of human muscarinic acetylcholine receptor M1 expressed in CHO cells assessed as increase in acetylcholine-induced calcium mobilization pretreated for 4 mins followed by acetylcholine addition and measured after 4 mins by Fluo-4-AM dye based FLIPR assay. It is filed as functional, cell-based.

In a further assay the test system is Mus musculus. The experiment in a line: Antialzheimer activity in mouse assessed as unbound brain concentration required for reversal of scopolamine-induced emotional memory deficits by measuring increase in freezing at 3 mg/kg, ip measured after 24 hrs by contextual fear conditioning assay. It is filed as functional, organism-based.
In assay [2] the target is T2, Muscarinic acetylcholine receptor M1 (Macaca mulatta) (UniProt P56489).
T2 sequence (whole entry): T1 sequence (whole entry) with A265P, E277D
The note with it: CHO.
Description: Positive allosteric modulation of rhesus monkey muscarinic acetylcholine receptor M1 expressed in CHO cells assessed as increase in acetylcholine-induced calcium mobilization pretreated for 4 mins followed by acetylcholine addition and measured after 4 mins by Fluo-4-AM dye based FLIPR assay

Assay [3] deals with T3, Muscarinic acetylcholine receptor (Canis lupus familiaris) (UniProt A0A8C0MJA7).
T3 sequence (whole entry): T1 sequence (whole entry) with V155I, P246R, A248T, A265T, Q312P, K331R, D335E, P343A, D393N
As to conditions: CHO.
Description: Positive allosteric modulation of dog muscarinic acetylcholine receptor M1 expressed in CHO cells assessed as increase in acetylcholine-induced calcium mobilization pretreated for 4 mins followed by acetylcholine addition and measured after 4 mins by Fluo-4-AM dye based FLIPR assay

For assay [4], the target named is T4, Muscarinic acetylcholine receptor M4 (Homo sapiens) (UniProt P08173).
T4 sequence (whole entry): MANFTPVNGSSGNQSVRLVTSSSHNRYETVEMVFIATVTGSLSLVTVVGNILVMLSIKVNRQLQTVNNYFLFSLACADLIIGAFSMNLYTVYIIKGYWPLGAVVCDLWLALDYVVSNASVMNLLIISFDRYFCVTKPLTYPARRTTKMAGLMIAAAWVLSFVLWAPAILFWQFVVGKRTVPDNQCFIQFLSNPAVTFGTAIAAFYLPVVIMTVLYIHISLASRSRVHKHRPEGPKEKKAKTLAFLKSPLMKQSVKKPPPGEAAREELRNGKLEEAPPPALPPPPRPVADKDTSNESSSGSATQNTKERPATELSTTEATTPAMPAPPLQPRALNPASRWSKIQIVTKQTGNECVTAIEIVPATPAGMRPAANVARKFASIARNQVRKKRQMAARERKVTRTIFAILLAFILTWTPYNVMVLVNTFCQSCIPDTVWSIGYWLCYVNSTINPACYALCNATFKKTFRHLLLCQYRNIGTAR
The experiment in a line: Agonist activity at human muscarinic acetylcholine receptor M4 expressed in CHO cells. It is filed as functional, cell-based.

Assay [5] deals with T5, Muscarinic acetylcholine receptor M2 (Homo sapiens) (UniProt P08172).
T5 sequence (whole entry): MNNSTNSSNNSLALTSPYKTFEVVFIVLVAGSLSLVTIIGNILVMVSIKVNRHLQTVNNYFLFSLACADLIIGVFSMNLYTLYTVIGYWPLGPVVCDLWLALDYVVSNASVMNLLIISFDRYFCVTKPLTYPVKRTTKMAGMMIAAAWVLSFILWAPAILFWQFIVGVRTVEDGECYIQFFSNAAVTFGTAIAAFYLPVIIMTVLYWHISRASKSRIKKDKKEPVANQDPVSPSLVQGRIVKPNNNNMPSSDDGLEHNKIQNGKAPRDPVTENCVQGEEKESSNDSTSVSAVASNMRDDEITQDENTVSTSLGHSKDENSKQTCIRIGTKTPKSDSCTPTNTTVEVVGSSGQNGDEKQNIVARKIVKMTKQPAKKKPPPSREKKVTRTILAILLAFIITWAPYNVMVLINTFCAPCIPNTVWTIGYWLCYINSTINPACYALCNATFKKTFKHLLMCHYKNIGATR
The experiment in a line: Positive allosteric modulation of human muscarinic acetylcholine receptor M2 expressed in CHO cells. It is filed as functional, cell-based.

Turning to `Cc1ccc(Cc2cc3c(=O)n([C@H]4CCCC[C@@H]4O)cnc3c3ccccc23)cn1`, the IP in assay [1] was 19 nM; in assay [2], 3.8 nM; in assay [3], 1.4 nM. Also, the Drug uptake(free) in the assay with Mus musculus was found to be 24 nM. In addition, the result in assay [4] and in assay [5] was inactive.
